Test results published in article PMC12250893, “Systematic Characterization of In Vitro and In Vivo Metabolic Pathways and Identification of Novel Biomarkers of 26 Synthetic Cannabinoids” (Molecules, 2025).
Entries after “also recorded” stand apart in the source; their conditions may differ. Read-outs that look alike come from different tables or passages of the source.

Tests used:
[1] = Metabolite identification, HLM incubation and rat model combined (UHPLC-Q-Exactive Orbitrap MS); set-up: species or system human; rat; details: for Characteristic Metabolite: characteristic / defining metabolites by the screening criteria; for Number of Metabolites / Number of Phase I Metabolites / Number of Phase II Metabolites: in vitro (HLM) and in vivo (rat) models together; for metabolite that was a common outcome in both models: HLM incubation and rat model
Procedure: (§1) Sprague-Dawley male rats (200 ± 20 g) were obtained from SPF (Beijing) Biotechnology Co., Ltd. (Beijing, China). The animals were housed under controlled environmental conditions: Temperature was maintained at 20–25 °C, humidity at 50 ± 10%, and a 12/12 h light/dark cycle was applied. They had ad libitum access to standard laboratory chow and filtered water. A two-week acclimatization period was provided before the experiments began. The 26 SC standards were prepared in normal saline at concentrations of 0.5 mg/mL, 0.1 mg/mL, and 0.05 mg/mL. Each rat was weighed before administration, and the injection dose was adjusted based on body weight. The dosing volume for each rat was maintained at approximately 200 µL.
(§2) 162 Sprague-Dawley (SD) rats were randomly divided into 27 groups, with six rats in each group. The control group received an injection of normal saline, while the remaining groups were injected with 26 different types of SCs. The dosage administered was determined based on pre-experimental results, specifically selecting the dose that produced the highest level of metabolites in the blood samples collected 1 h after tail vein injection at concentrations of 0.5 mg/kg, 0.1 mg/kg, and 0.05 mg/kg, as shown in Table 6. Subsequently, tail vein administration was conducted at the specified dosage. The orbital venous blood was taken from the outer canthus of the rat with capillaries at 15 min and 1 h. Feces were collected after the blood. The rats were then sacrificed, and their brains and livers were dissected. Samples were immediately frozen in liquid nitrogen and stored at −80 °C until analysis.
(§3) For blood samples, 0.5 mL of each sample was mixed with 1.0 mL of acetonitrile. For brain samples, 0.2 g of tissue was combined with 0.5 mL of acetonitrile. For liver samples, 0.5 g of tissue was mixed with 0.5 mL of acetonitrile. For feces samples, 0.2 g of sample was combined with 1 mL of acetonitrile-water (3:1) for grinding and homogenization. Each mixture was sonicated for 40 min, allowed to precipitate at 4 °C for 30 min, and then centrifuged at 13,500 rpm for 10 min. The supernatant was filtered using a syringe filter (0.45 μm) for further testing.

[2] = Clinical symptoms of rats in metabolic model; type: in vivo, rat; details: SD rats, dose 0.05-0.5 mg/kg per Table 6
Procedure: as §1, §2

[3] = Human liver microsomal incubation (in vitro metabolic model); details: for Conversion Rate: HLM, 37 °C 1 h, then UDPGA 30 min, peak area of parent in experimental group vs degradation control group; for most prevalent Phase II metabolic reaction / predominant Phase I metabolic reactions: human liver microsomal incubations
Procedure: Each of the 26 SCs was configured to 1 mg/mL with acetonitrile. The HLMs, NADPH regeneration solution A, regeneration solution B, and UDPGA solution were thawed at 4 °C. An icebox was prepared, and all additional steps were performed on ice. For this, 10 µL of NADPH regeneration solution A, 2 µL of regeneration solution B, 2 µL of SCs standard, and 10 µL of mixed human liver microsomes were added to 176 µL of 0.1 mol/L phosphate buffer. The mixture was mixed thoroughly and incubated at 37 °C for 1 h. Subsequently, 20 µL of UDPGA solution was added and mixed well, followed by an additional incubation for 30 min. The reaction was stopped by adding 200 µL of ice-cold acetonitrile. Additionally, the negative control group and the degradation control group were set up following the same procedure. […] The unadded components were supplemented with an equal amount of phosphate buffer. All samples were centrifuged at a high speed of 13,500 r for 10 min after reaction termination. The supernatant was collected and subsequently passed through a membrane filter (0.45 μm) prior to sampling.
The samples were separated and analyzed using a UHPLC-Q-Exactive Orbitrap MS system (Thermo Fisher Scientific, Waltham, MA, USA), which comprised a Thermo-Scientific™ Q-Exactive™(Thermo Fisher Scientific, Waltham, MA, USA) quadrupole electrostatic field orbitrap mass spectrometer coupled to a Vanquish ultrahigh-performance liquid chromatography (UHPLC) system (Thermo Fisher Scientific, Waltham, MA, USA) with a heated electrospray ionization HESI source in the positive ionization mode. The samples were separated on an ACQUITY UPLC BEH C18 Column (100 × 2.1 mm, 1.7 μm) with the column temperature maintained at 30 °C. The chromatographic separation was achieved using a gradient elution program with mobile phase A consisting of 0.1% formic acid in water and mobile phase B containing 0.1% formic acid in acetonitrile. The gradient profile was programmed as follows: Initial conditions were maintained at 5% B from 0 to 1 min, followed by a linear increase to 95% B from 1 to 11 min; the 95% B composition was held from 11 to 15.5 min, then decreased back to 5% B from 15.5 to 16 min, and finally maintained at 5% B from 16 to 18 min. The flow rate was set at 0.3 mL/min, and the injection volume was 10 μL for all analyses.
The following HESI source conditions were adopted: Acquisition mode was set to positive ion mode; the capillary temperature was maintained at 325 °C, the auxiliary gas heater temperature was set to 350 °C, and the spray voltage was applied at 3.7 kV. The mass spectrometry analysis was carried out in full-scan (FS) mode to trigger data-dependent acquisition in tandem mass spectrometry (FS-ddMS^2) mode. The FS data acquisition was performed using the following parameters: a resolution of 60,000, an automatic gain control (AGC) target of 1 × 10^6, a scan range of m/z 66.7–1000, and a maximum injection time (IT) of 250 ms. The ddMS^2 data acquisition was performed using the following parameters: a resolution of 30,000; an automatic gain control (AGC) target of 1 × 10^5; normalized collision energies (NCEs) of 20, 40, and 70 eV; and a maximum injection time (IT) of 50 ms.
Data acquisition was executed utilizing Xcalibur 4.3 software (Thermo Fisher Scientific, Waltham, MA, USA). The subsequent analysis of the acquired data was conducted using Thermo Fisher Scientific […] 3.2 software (Thermo Fisher Scientific, Waltham, MA, USA). The workflow’s nodes employed specific parameters: a mass tolerance of 5 ppm, a signal-to-noise threshold of 3, a minimum peak intensity of 1 × 10^5, a maximum peak width of 0.8 min, and a minimum of 3 scans per peak.

[4] = Rat metabolic model, metabolite identification; type: in vivo
Procedure: as §1, §2, §3

[5] = set-up: method as in PMID 32678962; details: in vitro and in vivo systems; cited from earlier work
[6] = pooled HLM and real urine samples; cited from earlier work
[7] = following human liver microsomal incubation

Compound	Characteristic Metabolite [1]	Number of Metabolites [1]	Number of Phase I Metabolites [1]	Number of Phase II Metabolites [1]	Animal manifestations after tail vein drug injection [2]	Conversion Rate [3]	other results
CC(C)(C)C(NC(=O)c1nn(CC2CCCCC2)c2ccccc12)C(N)=O (stereo not shown) [ADB-CHMINACA]	Deamination, deamination of N-alkyl side chains, and hydrolytic metabolites	25	18	7	irritable, with unstable gait and tachypnea	62.8%	–
CCOC(=O)C(NC(=O)c1nn(CCCCCF)c2ccccc12)C(C)C (stereo not shown) [5F-EMB-PINACA]	ester hydrolysis, ester hydrolysis, hydroxylated, and oxidative defluorination metabolites; also recorded: Ester hydrolysis, oxidative defluorination, ester hydrolysis, and hydroxylated metabolites	23	19	4	irritable, with unstable gait and tachypnea; also recorded: hematuria	100.0%	metabolite that was a common outcome in both models [1]: ester hydrolysis metabolite; key Phase I metabolic reactions [4]: oxidative defluorination and hydroxylation; most significant Phase II metabolic processes [4]: sulfation and arginine binding reactions; Phase II metabolites identified ([4]; tail vein injection): 3; metabolic pathways associated ([4]; tail vein injection): eight; metabolites identified ([4]; tail vein injection): 13; Phase II metabolites detected [3, 7]: one; metabolites detected [3, 7]: eleven; most prevalent Phase II metabolic reaction [3]: glucuronidation; predominant Phase I metabolic reactions [3]: ester hydrolysis and hydroxylation
COC(=O)C(NC(=O)c1nn(CCCCCF)c2ccccc12)C(C)(C)C (stereo not shown) [5F-ADB]	Ester hydrolysis, dehydrogenation, and acidification metabolites	25	17	8	hematuria	88.1%	–
CC1(C)C(C(=O)c2cn(Cc3ccc(F)cc3)c3ccccc23)C1(C)C [FUB-144]	Ketogenic and hydroxylated, hydroxylated, and dehydrogenated metabolites	18	11	7	hematuria	30.4%	–
CC(C)(NC(=O)c1cn(CCCCCF)c2ncccc12)c1ccccc1 [CUMYL-5F-P7ICA]	–	–	–	–	–	–	Phase II metabolites detected [5]: sulfated and glucuronidated; most common Phase I reactions [5]: oxidative defluorination, monohydroxylation, ketone formation, and carboxylation
COC(=O)C(NC(=O)c1cn(CCCCCF)c2ccccc12)C(C)(C)C (stereo not shown) [5F-MDMB-PICA]	ester hydrolysis, de-N-alkylation, and oxidative defluorination metabolites; also recorded: Ester hydrolysis, de-N-alkyl side chain, and oxidative defluorination metabolite	25	18	7	–	95.9%	metabolite that was a common outcome in both models [1]: oxidative defluorination metabolite; key Phase I metabolic reactions [4]: oxidative defluorination and hydroxylation; most significant Phase II metabolic processes [4]: sulfation and glycoside binding reactions; Phase I metabolites identified ([4]; tail vein injection): seven; Phase II metabolites identified ([4]; tail vein injection): five; metabolic pathways associated ([4]; tail vein injection): seven; metabolites identified ([4]; tail vein injection): twelve; Phase I metabolites detected [3, 7]: twelve; Phase II metabolites detected [3, 7]: two; metabolic pathways involved [3, 7]: eight; metabolites detected [3, 7]: fourteen; most prevalent Phase II metabolic reaction [3]: glucuronidation; predominant Phase I metabolic reactions [3]: ester hydrolysis and hydroxylation; most abundant stage I metabolites [6]: ester hydrolysis metabolites
CCCCCn1cc(C(=O)c2ccc3ccccc3c2)cc1-c1ccccc1C [JWH-370]	Dihydrodiol, hydroxylated, and de-N-alkyl side chain metabolites	14	9	5	syncope	42.0%	–
